Laboratory results as given in US8148347B2, “Inhibition of interaction of PSD93 and PSDS95 with nNOS and NMDA receptors” (The Johns Hopkins University, priority 2000, dated 2012).

Key:
PSD-95/SAP90 = experiment: immunoblot of PSD-95/SAP90 expression in spinal cord of OND-treated rats; type: in vivo, rat
Description: Antisense ONDs, widely used as research tools and even as drugs in clinical trials, inhibit protein expression by the mechanisms of (1) steric blockade of ribosomal subunit attachment to mRNA at the 5′ cap site; (2) interference with proper mRNA splicing through antisense binding to splice donor or splice acceptor sites; (3) Rnase-H-mediated degradation of hybridized mRNA.^18 To further examine whether the action of antisense OND for PSD-95/SAP90 above was specifically due to selective decrease or lack of PSD-95/SAP90 but not other proteins in the spinal cord, we detected PSD-95/SAP90, NMDA receptor subunits 2A/2B (NR2A/2B), neuronal nitric oxide synthase (nNOS) and SAP-102 in homogenates from crude lumbar enlargement segments in the normal, saline-treated (control) and OND-treated rats. […]
Animal preparation and behavioral testing. […] Nociception was evaluated by the radiant heat tail-flick test. The doses and time point of maximal effect of NMDA used in the present study were determined based on a previous study.^24 The tail-flick apparatus (Model 33B Tail Flick Analgesy Meter, IITC Life Science, Woodland Hills, Calif., USA) generated a beam of radiant heat that was focused on the underside of the tail, 5 cm from the tip. […] Nociception was assessed by the time required to induce tail-flick after applying radiant heat to the skin of the tail. […]

Male Sprague-Dawley rats = experiment: measurement of isoflurane MAC (tail clamp); type: in vivo, rat; settings: for MAC (isoflurane): mean ± SD
Protocol: The ODNs were dissolved in saline before administration. As described in the previous work,^49 the rats were injected intrathecally with saline (10 μl) (control), antisense ODNs (12.5, 25, 50 μg/10 μl), sense ODN (50 μg/10 μl) and missense ODN (50 μg/10 μl), respectively, followed by an injection of 10 μl of saline to flush the catheter, every 24 h for 4 days.
On the fifth day after saline or ODNs injection, each rat was placed in a clear plastic cone and anesthetized with 5% isoflurane in oxygen for three to five minutes. After tracheostomy, the trachea of each animal was intubated with a 16-gauge polyethylene catheter. The inspired isoflurane concentration was reduced to 2%, and the animals breathed spontaneously until cannulation of a carotid artery and a jugular vein with PE-50 tubing was accomplished. The isoflurane concentration was decreased further to 1.5%, and ventilation was controlled by a Harvard Animal Respirator (Harvard Apparatus, South Natick, Mass.) adjusted according to the measurement of arterial blood gases to maintain normal partial pressure of oxygen (PO2=91-94 mmHg), partial pressure of carbon dioxide (PCO2=33-41 mmHg) and pH (7.4-7.44). Electrocardiography and systolic and diastolic blood pressure were monitored using a Grass Polygraph (Astroumed Grass, Quincy, Mass.) and Gould Pressure Transducer (Gould, Cleveland, Ohio). Rectal temperature was maintained between 36.5 and 37.5° C. by use of a heating blanket and warming lights.
A PE-10 catheter was introduced through and beyond the endotracheal tube until obstruction to passage was met and then withdrawn 1 to 2 mm. For isoflurane MAC measurement, the PE-10 catheter was connected to a parameter airway gas monitor (Datex-Engstrom, Inc., Tewksbury, Mass.). After stabilizing about 30 minutes, MAC was measured according to the methods described previously^34 using a long hemostat (8-inch Rochester Dean Hemostatic Forceps) clamped to the first ratchet lock on the tail for 1 min. The tail was always stimulated proximal to a previous test site. Gross movement of the head, extremities, or body was taken as a positive test result, whereas grimacing, swallowing, chewing, or tail flick were considered negative results. The isoflurane concentration was reduced in decrements of 0.12 to 0.15% until the negative response became positive, with 12-15 min equilibration allowed after changes in concentration.^50,51 The MAC was considered to be the concentration midway between the highest concentration that permitted movement in response to the stimulus and the lowest concentration that prevented movement. Finally, intrathecal PE-10 catheter position from each animal was confirmed.
In some saline-treated rats, after initial baseline MAC determination, NMDA at the dose of 1.25 μg^38 or saline was injected intrathecally in a volume of 10 μl saline, followed by an injection of 10 μl saline to flush the catheter. Fresh NMDA solution was prepared for each experiment. […] At this isoflurane concentration, 10 min after the intrathecal injection of NMDA, the animals were tested again for reactivity to tail clamp. The concentration of isoflurane was increased, and response to tail clamp was checked every 12-15 min thereafter until a negative response was achieved. In some antisense ODN (50 μg)-treated rats, after initial MAC determination, NMDA or saline was also administered intrathecally. The MAC for isoflurane was again determined following the aforementioned procedures.

[1] = 50 μg intrathecal every 24 h for 4 days

| Substance | PSD-95/SAP90 protein in the postsynaptic density (PSD) fraction of the spinal cord (PSD-95/SAP90; FIGS. 1Aa and b) | change of the value for isoflurane MAC compared to the control group (Male Sprague-Dawley rats; 50 μg intrathecal) | MAC (isoflurane) (Male Sprague-Dawley rats; [1]) | PSD-95/SAP90 expression (PSD-95/SAP90; spinal cord, after intrathecal treatment (FIG. 1Ab)) | decrease from isoflurane control MAC (Male Sprague-Dawley rats; 12.5 μg) | MAC (isoflurane) (Male Sprague-Dawley rats; 12.5 μg intrathecal every 24 h for 4 days) | decrease from isoflurane control MAC (Male Sprague-Dawley rats; 25 μg) | MAC (isoflurane) (Male Sprague-Dawley rats; 25 μg intrathecal every 24 h for 4 days) | decrease from isoflurane control MAC (Male Sprague-Dawley rats; 50 μg) | increase in isoflurane MAC after NMDA compared to 50 μg antisense ODN alone (Male Sprague-Dawley rats; pretreated with 50 μg antisense ODN, intrathecal NMDA 1.25 μg) |
| --- | --- | --- | --- | --- | --- | --- | --- | --- | --- | --- |
| 5′-AAGCCCTTGTTCCCATTT-3′ (DNA, backbone and methylation of C not given here; listed as Rattus rattus) [MS, missense OND control, reference compound] | enriched | did not significantly change | 1.13 ± 0.15 |  |  |  |  |  |  |  |
| 5′-TGTGATCTCCTCATACTC-3′ (DNA, backbone and methylation of C not given here; listed as Rattus rattus) [antisense oligonucletide corresponding to the PDZ domain nucleotides 241 to 258 of rat PSD-95/SAP90 mRNA] |  |  | 0.72 ± 0.05 | < 15 % of control | 1% | 1.15 ± 0.18 | 18% | 0.98 ± 0.14 | 44% | did not result in a significant increase |
